Laboratory results taken from PMC7000732, “Bridging non-overlapping reads illuminates high-order epistasis between distal protein sites in a GPCR” (Nature Communications, 2020).
Values joined by “and” are separate entries in the source; they are usually repeats but may differ in a detail not shown here. Identical values can stand only once.

What was measured:
A2aR W246Y = details: cited from earlier work
[1] = target: A2aR suspended in bovine striatal membranes; design: method as in earlier work; details: literature value; cited from earlier work
[2] = design: method as in doi:10.1016/0584-8539(95)01421-P; details: cited from earlier work
[3] = Whole-cell saturation radioligand binding; design: species or system Saccharomyces cerevisiae; details: for Kd: 3H-NECA, whole yeast cells, pH 5.8, mean ± SD of three biological replicates, read-out: equilibrium dissociation constant (Kd); for CPM: raw replicate counts, empty vector not subtracted
[4] = FACS-based screen of A2aR library with deep sequencing (BRIDGE): variant enrichment; assay type: cell-based, Saccharomyces cerevisiae
[5] = Fluorescent ligand binding measured by flow cytometry; design: species or system Saccharomyces cerevisiae; details: for fluorescent ligand binding signal: replicates
[6] = naive to PS4 library (PS4/naive), high-stringency gating, 10 µM FITC-APEC

CCNC(=O)[C@H]1O[C@@H](n2cnc3c(N)nc(NCCc4ccc(CCC(=O)O)cc4)nc32)[C@H](O)[C@@H]1O [CGS21680]
potency of the agonist (A2aR W246Y): comparable to that of the wild-type receptor

CCNC(=O)[C@H]1O[C@@H](n2cnc3c(N)nc(NCCc4ccc(CCC(=O)NCCNC(=S)Nc5ccc6c(c5)C(=O)OC65c6ccc(O)cc6Oc6cc(O)ccc65)cc4)nc32)[C@H](O)[C@@H]1O [FITC-APEC]
Kd [1]: 57 nM

O=C1OC2(c3ccc(O)cc3Oc3cc(O)ccc32)c2ccccc21 [Fluorescein]
pKa of the dianion [2]: 6.43

WT: wild-type human adenosine A2a receptor, decahistidine-tagged, expressed in yeast from centromeric pYC vector [reference compound]
Kd [3]: 39.2 ± 4.8 nM | CPM ([3]; [3H-NECA] 1.6 nM): 64 CPM and 47 CPM and 35 CPM | CPM ([3]; [3H-NECA] 3.1 nM): 108 CPM and 89 CPM and 54 CPM | CPM ([3]; [3H-NECA] 6.3 nM): 192 CPM and 223 CPM and 155 CPM | CPM ([3]; [3H-NECA] 12.5 nM): 331 CPM and 408 CPM and 255 CPM | CPM ([3]; [3H-NECA] 25 nM): 470 CPM and 533 CPM and 388 CPM | CPM ([3]; [3H-NECA] 50 nM): 546 CPM and 694 CPM and 708 CPM | CPM ([3]; [3H-NECA] 100 nM): 805 CPM and 900 CPM and 958 CPM | CPM ([3]; [3H-NECA] 200 nM): 1026 CPM and 1370 CPM and 1371 CPM | CPM ([3]; [3H-NECA] 400 nM): 1047 CPM and 2304 CPM and 1995 CPM | Enrichment rate [4, 6]: 0.3 | Enrichment rate ([4]; naive to PS4 population): 0.30 fold | fluorescent ligand binding signal ([5]; [FITC-APEC] 10 nM, Supplementary Figure 1 source data, listed as pYC A2a10H): 101 and 100 and 99 | fluorescent ligand binding signal ([5]; [FITC-APEC] 10 nM, Supplementary Figure 4 source data, listed as pYC A2a10H): 104 and 103 and 102 | fluorescent ligand binding signal ([5]; [FITC-APEC] 100 nM, Supplementary Figure 1 source data, listed as pYC A2a10H): 111 and 108 and 134 | fluorescent ligand binding signal ([5]; [FITC-APEC] 100 nM, Supplementary Figure 4 source data, listed as pYC A2a10H): 114 and 110 and 133 | fluorescent ligand binding signal ([5]; [FITC-APEC] 1000 nM, Supplementary Figure 1 source data, listed as pYC A2a10H): 208 and 180 and 189 | fluorescent ligand binding signal ([5]; [FITC-APEC] 1000 nM, Supplementary Figure 4 source data, listed as pYC A2a10H): 206 and 184 and 191 | fluorescent ligand binding signal ([5]; [FITC-APEC] 10000 nM, Supplementary Figure 1 source data, listed as pYC A2a10H): 370 and 353 and 396 | fluorescent ligand binding signal ([5]; [FITC-APEC] 10000 nM, Supplementary Figure 4 source data, listed as pYC A2a10H): 377 and 330 and 373 | fluorescent ligand binding signal ([5]; [FITC-APEC] 50000 nM, Supplementary Figure 1 source data, listed as pYC A2a10H): 442 and 457 and 477 | fluorescent ligand binding signal ([5]; [FITC-APEC] 50000 nM, Supplementary Figure 4 source data, listed as pYC A2a10H): 354 and 386 and 364

B1: TAWLH: single-residue mutant Q89A of A2aR, positive control reported to exhibit improved binding affinity to NECA (protein, UniProt P29274 1-412, looked up, variant Q89A)
Adenosine receptor A2a: MPIMGSSVYITVELAIAVLAILGNVLVCWAVWLNSNLQNVTNYFVVSLAAADIAVGVLAIPFAITISTGFCAACHGCLFIACFVLVLTASSIFSLLAIAIDRYIAIRIPLRYNGLVTGTRAKGIIAICWVLSFAIGLTPMLGWNNCGQPKEGKNHSQGCGEGQVACLFEDVVPMNYMVYFNFFACVLVPLLLMLGVYLRIFLAARRQLKQMESQPLPGERARSTLQKEVHAAKSLAIIVGLFALCWLPLHIINCFTFFCPDCSHAPLWLMYLAIVLSHTNSVVNPFIYAYRIREFRQTFRKIIRSHVLRQQEPFKAAGTSARVLAAHGSDGEQVSLRLNGHPPGVWANGSAPHPERRPNGYALGLVSGGSAQESQGNTGLPDVELLSHELKGVCPEPPGLDDPLAQDGAGVS
modifications: decahistidine tag
Kd [3]: 9.9 ± 0.4 nM | CPM ([3]; [3H-NECA] 1.6 nM): 224 CPM and 211 CPM and 240 CPM | CPM ([3]; [3H-NECA] 3.1 nM): 450 CPM and 470 CPM and 429 CPM | CPM ([3]; [3H-NECA] 6.3 nM): 719 CPM and 702 CPM and 640 CPM | CPM ([3]; [3H-NECA] 12.5 nM): 1084 CPM and 978 CPM and 892 CPM | CPM ([3]; [3H-NECA] 25 nM): 1238 CPM and 1266 CPM and 1270 CPM | CPM ([3]; [3H-NECA] 50 nM): 1460 CPM and 1383 CPM and 1357 CPM | CPM ([3]; [3H-NECA] 100 nM): 1834 CPM and 1782 CPM and 1547 CPM | CPM ([3]; [3H-NECA] 200 nM): 2245 CPM and 2197 CPM and 2158 CPM | CPM ([3]; [3H-NECA] 400 nM): 2884 CPM and 2262 CPM and 2852 CPM | fold greater 3H-NECA binding affinity than wild-type receptor ([3]; ratio of Kd to wild-type): fourfold | Enrichment rate [4, 6]: 149 | Fold increase in enrichment rate over WT ([4]; naive to PS4 library, WT rate 0.30): 497 fold | Enrichment rate ([4]; naive to PS4 population): 149 fold | fluorescent ligand binding, result in words ([5]; FITC-APEC, yeast cells): improved binding affinity | fluorescent ligand binding signal ([5]; [FITC-APEC] 10 nM, Supplementary Figure 4 source data, listed as pYC A2a10H (Q89A)): 102 and 104 and 101 | fluorescent ligand binding signal ([5]; [FITC-APEC] 100 nM, Supplementary Figure 4 source data, listed as pYC A2a10H (Q89A)): 132 and 133 and 147 | fluorescent ligand binding signal ([5]; [FITC-APEC] 1000 nM, Supplementary Figure 4 source data, listed as pYC A2a10H (Q89A)): 298 and 308 and 303 | fluorescent ligand binding signal ([5]; [FITC-APEC] 10000 nM, Supplementary Figure 4 source data, listed as pYC A2a10H (Q89A)): 368 and 357 and 377 | fluorescent ligand binding signal ([5]; [FITC-APEC] 50000 nM, Supplementary Figure 4 source data, listed as pYC A2a10H (Q89A)): 430 and 460 and 408
